Measured values published in patent US8951789B2, “Mammalian artificial chromosome vector comprising human cytochrome P450 gene (cluster) and non-human mammalian animal retaining the same” (National University Corporation Tottori University, priority 2007, dated 2015).

How the values were obtained:
CYP3A/Cyp3a [1] = assay: Midazolam metabolites in mouse liver microsomes by LC-MS/MS; conditions: 10 μM midazolam
Procedure: (§1) In order to investigate whether or not a human-specific metabolite of midazolam, which is known to be metabolized by CYP3A/Cyp3a, is observed in the TC (CYP3A-HACΔ)/Δcyp mouse as in the case of a human, microsomes derived from the liver of the TC(CYP3A-HACΔ)/Δcyp mouse, the Δcyp mouse, the B6 normal mouse, and the human were allowed to react with midazolam, and mass analysis was carried out via LC-MS/MS in the following manner. […] The reaction was terminated with the addition of acetonitrile, the mixture was centrifuged at 3,000 rpm for 5 minutes, and the supernatant was separated. The solvent was removed therefrom by distillation under a nitrogen stream at 40° C., the dried extract was redissolved in acetonitrile, and mass analysis was carried out by LC-MS/MS

CYP3A/Cyp3a [2] = assay: Midazolam metabolites in human liver microsomes by LC-MS/MS; conditions: 10 μM midazolam, 37° C. 30 minutes
Procedure: as §1

CYP3A/Cyp3a expression = assay: Induction of CYP3A/Cyp3a expression by PCN, Western blot of liver microsome fractions
Procedure: In order to investigate the influence of pregnenolone 16α-carbonitrile (PCN) (Sigma), which is known as a substance inducing CYP3A/Cyp3a expression, on CYP3A/Cyp3a gene expression in TC(CYP3A-HACΔ)/Δcyp, Δcyp, and B6 normal mice, PCN was administered intraperitoneally for 4 days in amounts of 100 mg/kg per dose. A suspension of PCN in corn oil (Sigma) was prepared for administration.

| Compound | human-specific metabolite (10.22) (CYP3A/Cyp3a [1]; TC(CYP3A-HACΔ)/Δcyp mouse liver microsomes, 37° C. 30 minutes) | main metabolite (10.62) (CYP3A/Cyp3a [1]; all microsomes (TC(CYP3A-HACΔ)/Δcyp, Δcyp, B6 normal mouse, human)) | human-specific metabolite (10.22) (CYP3A/Cyp3a [2]) | CYP3A expression level compared with corn oil mice of the same strain (CYP3A/Cyp3a expression; B6 normal mice, 100 mg/kg intraperitoneally for 4 days, liver on day 5) | CYP3A expression (CYP3A/Cyp3a expression; mouse, in vivo, ip, 100 mg/kg) | CYP3A expression level compared with corn oil mice of the same strain (CYP3A/Cyp3a expression; mouse, in vivo, ip, 100 mg/kg) | metabolic activity (triazolam hydroxylation) of liver microsomes, PCN-administered versus corn oil-administered mice (CYP3A4) |
| --- | --- | --- | --- | --- | --- | --- | --- |
| Cc1ncc2n1-c1ccc(Cl)cc1C(c1ccccc1F)=NC2 [midazolam] | detected | detected in all microsomes | detected | – | – | – | – |
| CC(=O)[C@H]1[C@H](C#N)C[C@H]2[C@@H]3CC=C4C[C@@H](O)CC[C@]4(C)[C@H]3CC[C@@]21C [PCN, pregnenolone 16α-carbonitrile] | – | – | – | elevated | not observed | elevated | 10 times |
